Source: patent US20200354348A1, “SEMISYNTHETIC AURONES AND METHODS OF USE THEREOF” (University of Kentucky Research Foundation, priority 2018, published 2020)
“Also recorded” adds a separate entry of the source.

Key:
[1] = tested on: LS174T colon and PC3 prostate cancer cells; assay: Combination with CDK inhibitor R03306, proliferation; format: cell-based
[2] = tested on: PC-3, LS174T, A549, MCF-7, Ovcar-8 and NCI/ADR-RES; assay: Inhibition of various cancer cell lines, five-day treatment (FIG. 2A); format: cell-based; conditions: 120 h
Description: The inhibitory effects of aurones 4a and 4r were determined on various cancer cell lines including prostate cancer PC-3, colorectal cancer LS174T, lung cancer A549, breast cancer MCF-7, and ovarian cancer Ovcar-8 and NCI/ADR-RES (Tables 1-3, FIG. 2A).
(§1) Cell Culture. LS174T (colon cancer cells), PC-3 (prostate cancer cells), MCF-7 (beast) and A549 (lung) were cultured in the medium recommended by American Type Culture Collection at 37° C. with 5% CO2 atmosphere in a water jacketed incubator. Ovcar-8 and NCI/ADR-RES are gifts from Dr. Markos Leggas. Alpha-tubulin antibodies, TRITC-conjugated anti-rabbit antibody.
Proliferation inhibition assay. Cancer cells were seeded into 24-well plates at a density of 20,000 cells per well in 1 mL of culture medium and cultured overnight at 37° C. Compounds and the vehicle control DMSO were added to the cells. […] Then the cells resuspended in pbs were counted by Vi-CELL XR 2.03 (Beckman Coulter, Inc. USA). The ratio R of the number of viable cells in the compound treatment group to the number of viable cells in DMSO treatment group was taken as relative growth, and the percentage growth inhibition was calculated as: (1−R)*100. For initial testing, compounds were added to the cells at a final concentration 10 μM. Active compounds at 10 μM would be tested at lower concentrations.

[3] = tested on: PC-3 cells; assay: Immunofluorescence imaging of tubulin networks; format: cell-based; conditions: α-tubulin immunofluorescence
Description: Tubulin networks were examined by confocal immunofluorescence imaging. Briefly, PC3 cells were placed at a density of 80,000/mL to 24-well plates equipped with round microscope glass cover slides. After culturing at 37° C. for 24 hours, DMSO or compounds were added to the cells and incubated for additional 6 hours. Then the medium was removed and the cells were washed with pbs three times. Primary anti-α-tubulin antibody was added and incubated overnight at 4° C. After additional washing, secondary TRITC-conjugated anti-rabbit antibody was added for 40 min, followed by additional washing and staining with DAPI. Final washing was performed and the cover slides were inverted onto glass slides. Images (40×) were taken using a Nikon confocal microscope with excitation at 557 nm and emission at 576 nm.

[4] = tested on: PC-3 and LS174T cells; assay: Proliferation inhibition, Table 2; format: cell-based; conditions: Homo sapiens, read-out: inhibition at 300 nM concentrations
Description: (§2) Proliferation inhibition assay. Cancer cells were seeded into 24-well plates at a density of 20,000 cells per well in 1 mL of culture medium and cultured overnight at 37° C. Compounds and the vehicle control DMSO were added to the cells. After 6 days, medium was removed and 100 μL of trypsin was added. Then the cells resuspended in pbs were counted by Vi-CELL XR 2.03 (Beckman Coulter, Inc. USA). The ratio R of the number of viable cells in the compound treatment group to the number of viable cells in DMSO treatment group was taken as relative growth, and the percentage growth inhibition was calculated as: (1−R)*100. For initial testing, compounds were added to the cells at a final concentration 10 μM. Active compounds at 10 μM would be tested at lower concentrations.

[5] = tested on: PC-3 tumor xenografts; assay: PC-3 xenografts in nude mice; format: in vivo; conditions: 10 mg/kg/day
Description: PC-3 cells suspended in PBS were subcutaneously injected to the lower flanks of immune-deficient nude mice at a density of 2×10^6 cells/200 ul (PBS). After tumor establishment, 4A formulated in tween80 (5%), DMSO (10%), PEG400 (25%) and PBS (60%) were administered in an intraperitoneal fashion to mice at a daily dose of 10 mg (compound)/kg (mouse). Blank vehicle was used as a control. Tumors and mouse weights were measured and tumor volumes were calculated as Length×width^2/2.

[6] = tested on: OVCAR-5; assay: NCI60 screening; format: cell-based; conditions: Homo sapiens, Ovarian Cancer
[7] = tested on: LS174T cells; assay: Proliferation inhibition assay, LS174T; format: cell-based; conditions: Homo sapiens, LS174T, Table 2
Description: as §1, §2

[8] = tested on: Cdc2 (CDK1); assay: Cdc2 (CDK1) phosphorylation (FIG. 7B); format: cell-based
[9] = tested on: CCRF-CEM; assay: IC50 in leukemia cell lines; format: cell-based; conditions: Homo sapiens, T-ALL
[10] = tested on: SK-MEL-28; assay: NCI60 screening; format: cell-based; conditions: Homo sapiens, Melanoma
[11] = tested on: HCC1007-BL; assay: IC50 in leukemia cell lines; format: cell-based; conditions: Normal B-Lymphoblast
[12] = tested on: DND41; assay: IC50 in leukemia cell lines; format: cell-based; conditions: DND41, T-ALL
[13] = tested on: HBP-ALL; assay: IC50 in leukemia cell lines; format: cell-based; conditions: T-ALL
[14] = tested on: A549(ATCC); assay: NCI60 screening; format: cell-based; conditions: Homo sapiens, Non-Small Cell Lung Cancer

## CCn1cc(/C=C2\Oc3cc(OCC#N)ccc3C2=O)c2cc(OC)ccc21 [Aurone 4a, (Z)-2-((2-((1-Ethyl-5-methoxy-1H-indol-3-yl)methylene)-3-oxo-2,3-dihydrobenzofuran-6-yl)oxy)acetonitrile]
[1]
  combination effect with R03306 on proliferation: synergistic effects
[2]
  IC50: 50 to 300 nM
[3]
  microtubule structures: inhibited microtubule structures
[4]
  inhibition at 0.3 µM: > 90%
[5]
  gross toxicity / body weights of treated mice: without significant effects on body weights; also recorded: no apparent gross toxicity; also recorded: no general toxicity
[5]; intraperitoneal
  in vivo tumor inhibitory effect: inhibited PC-3 tumor xenografts; also recorded: significant, tumor-growth suppression
[6]
  GI50: 2520 nM
[7]; 100 nM
  inhibition at 0.1 µM: 11 ± 11%
[7]; 300 nM
  inhibition at 0.3 µM: 93 ± 14%
[7]; 1 μM
  inhibition at 1 µM: 97 ± 0.4%
[7]; 10 μM
  inhibition at 10 µM: 96 ± 0.8%
[8]
  Cdc2 (CDK1) phosphorylation at tyrosine 15: decreasing phosphorylation at tyrosine 15
[9]
  IC50: 244 nM
[10]
  GI50: 10200 nM
[11]
  IC50: 1380 nM
[12]
  IC50: 210 nM
[13]
  IC50: 94 nM
[14]
  GI50: 5100 nM
